The values that follow come from US9549921B2, “Heterocyclic compounds and methods of use thereof for the treatment of hepatitis C” (priority 2014, dated 2017).

The subject of assay [1] is HCV replicon genotype 1b. In words: HCV replicon assay, genotype 1b (cell ELISA for NS3/4A). Format: cell-based, hepatitis C virus. Put shortly: (§1)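 Stable neomycin-resistant replicon cell lines (genotype 1a or 1b) incubated 96 h with compound dilution series without G418. After washing and lysis, replication measured by cell ELISA for replicon-encoded NS3/4A protein; IC50 as % of DMSO control via four-parameter fit.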
A general note: Replicon systems follow genome replication, usually without infectious particles.

Assay [2] relates to HCV replicon genotype 1a. Nature of the assay: HCV replicon assay, genotype 1a (cell ELISA for NS3/4A). Format: cell-based, hepatitis C virus. Put shortly:
as §1

Where [3] appears, read: Hepatitis C virus, 96 h, read-out: 1b IC50 (nM), HCV genotype 1b replicon cells, 96 hours incubation, NS3/4A ELISA readout, % of DMSO control.
Setting [4] is: Hepatitis C virus, 96 h, read-out: 1a IC50 (nM), HCV genotype 1a replicon cells, 96 hours incubation, NS3/4A ELISA readout, % of DMSO control.
Where [5] appears, read: read-out: 1a IC50, HCV genotype 1a replicon cells, 96 hours incubation, NS3/4A ELISA readout, % of DMSO control.

Like-named read-outs stand apart in the source and are kept apart here.

Take `CNC(=O)c1c(-c2ccc(F)cc2)oc2cc(N(C)S(C)(=O)=O)c([C@@H]3CCCN(C(=O)c4nc5ncccc5[nH]4)C3)cc12` [Example 35, (S)-5-(1-(1H-imidazo[4,5-b]pyridine-2-carbonyl)piperidin-3-yl)-2-(4-fluorophenyl)-N-methyl-6-(N-methylmethylsulfonamido)benzofuran-3-carboxamide]: the IC50 in assay [1] (setting [3]) turned out to be 48.9 nM; in assay [2] (setting [4]) it was 71.6 nM.

Consider `CNC(=O)c1c(-c2ccc(F)cc2)oc2cc(N(C)S(C)(=O)=O)c([C@H]3CCCN(C(=O)c4c[nH]c5cc(F)ccc45)C3)cc12` [Example 102, 5-{(3R)-1-[(6-fluoro-1H-indol-3-yl)carbonyl]piperidin-3-yl}-2-(4-fluorophenyl)-N-methyl-6-[methyl(methylsulfonyl)amino]-1-benzofuran-3-carboxamide], for which the values for the IC50 in assay [1] (setting [3]) and in assay [2] (setting [4]) were 295 nM and 345 nM, respectively.

`CNC(=O)c1c(-c2ccc(F)cc2)oc2cc(N(C)S(C)(=O)=O)c([C@H]3CCCN(C(=O)c4nc5ccccc5[nH]4)C3)cc12` [Example 87, 5-[(3R)-1-(1H-benzimidazol-2-ylcarbonyl)piperidin-3-yl]-2-(4-fluorophenyl)-N-methyl-6-[methyl(methylsulfonyl)amino]-1-benzofuran-3-carboxamide]: the IC50 in assay [1] (setting [3]) came to 112 nM; in assay [2] (setting [4]), 267 nM.

Take `CNC(=O)c1c(-c2ccc(F)cc2)oc2cc(N(C)S(C)(=O)=O)c([C@@H]3CCCN(C(=O)c4cc5cccc(C(F)(F)F)c5[nH]4)C3)cc12` [Example 39, (S)-2-(4-fluorophenyl)-N-methyl-6-(N-methylmethylsulfonamido)-5-(1-(7-(trifluoromethyl)-1H-indole-2-carbonyl)piperidin-3-yl)benzofuran-3-carboxamide]: the IC50 in assay [1] (setting [3]) is 36.4 nM; in assay [2] (setting [4]), 268 nM.

In the case of `CNC(=O)c1c(-c2ccc(F)cc2)oc2cc(N(C)S(C)(=O)=O)c([C@H]3CCCN(S(=O)(=O)c4ccccc4F)C3)cc12` [Example 136, 2-(4-fluorophenyl)-5-{(3R)-1-[(2-fluorophenyl)sulfonyl]piperidin-3-yl}-N-methyl-6-[methyl(methylsulfonyl)amino]-1-benzofuran-3-carboxamide], the IC50 in assay [1] (setting [3]) came out at 40.5 nM; in assay [2] (setting [4]), 58.5 nM.

`CNC(=O)c1c(-c2ccc(F)cc2)oc2cc(N(C)S(C)(=O)=O)c([C@@H]3CCCN(S(=O)(=O)c4ccc(C)cc4)C3)cc12` [Example 113, 2-(4-fluorophenyl)-N-methyl-6-[methyl(methylsulfonyl)amino]-5-{(3S)-1-[(4-methylphenyl)sulfonyl]piperidin-3-yl}-1-benzofuran-3-carboxamide]: the IC50 in assay [1] (setting [3]) was 21.9 nM; in assay [2] (setting [4]) it was 64.6 nM.

In the case of `CNC(=O)c1c(-c2ccc(F)cc2)oc2cc(N(C)S(C)(=O)=O)c([C@@H]3CCCN(C(=O)c4cc5cccc(OC)c5[nH]4)C3)cc12` (single isomer, unassigned) [Example 42, 2-(4-fluorophenyl)-5-(1-(7-methoxy-1H-indole-2-carbonyl)piperidin-3-yl)-N-methyl-6-(N-methylmethylsulfonamido)benzofuran-3-carboxamide], the IC50 in assay [1] (read-out: 1b IC50, HCV genotype 1b replicon cells, 96 hours incubation, NS3/4A ELISA readout, % of DMSO control) was 23.9 nM; in assay [2] (setting [5]), 106 nM.

In the case of `CNC(=O)c1c(-c2ccc(F)cc2)oc2cc(N(C)S(C)(=O)=O)c([C@H]3CCCN(S(=O)(=O)Cc4ccccc4)C3)cc12` [Example 137, 5-[(3R)-1-(benzylsulfonyl)piperidin-3-yl]-2-(4-fluorophenyl)-N-methyl-6-[methyl(methylsulfonyl)amino]-1-benzofuran-3-carboxamide], the IC50 was 3.04 nM in assay [1] (setting [3]) and 2.15 nM in assay [2] (setting [4]).

Turning to `CNC(=O)c1c(-c2ccc(F)cc2)oc2cc(N(C)S(C)(=O)=O)c([C@H]3CCCN(C(=O)c4nc5ncccc5[nH]4)C3)cc12` [Example 36, (R)-5-(1-(1H-imidazo[4,5-b]pyridine-2-carbonyl)piperidin-3-yl)-2-(4-fluorophenyl)-N-methyl-6-(N-methylmethylsulfonamido)benzofuran-3-carboxamide], the IC50 in assay [1] (setting [3]) worked out at 286 nM; in assay [2] (setting [4]), 269 nM.

For the compound `CNC(=O)c1c(-c2ccc(F)cc2)oc2cc(N(C)S(C)(=O)=O)c([C@@H]3CCCN(S(=O)(=O)c4cccc(F)c4)C3)cc12` [Example 114, 2-(4-fluorophenyl)-5-{(3S)-1-[(3-fluorophenyl)sulfonyl]piperidin-3-yl}-N-methyl-6-[methyl(methylsulfonyl)amino]-1-benzofuran-3-carboxamide], the IC50 in assay [1] (setting [3]) came out at 8.2 nM; in assay [2] (setting [4]), 34.2 nM.

With `CNC(=O)c1c(-c2ccc(F)cc2)oc2cc(N(C)S(C)(=O)=O)c([C@H]3CCCN(C(=O)c4cn5c(Cl)cccc5n4)C3)cc12` [Example 107, 5-{(3R)-1-[(5-chloroimidazo[1,2-a]pyridin-2-yl)carbonyl]piperidin-3-yl}-2-(4-fluorophenyl)-N-methyl-6-[methyl(methylsulfonyl)amino]-1-benzofuran-3-carboxamide], the IC50 stood at 116 nM in assay [1] (setting [3]) and 389 nM in assay [2] (setting [4]).

For `CNC(=O)c1c(-c2ccc(F)cc2)oc2cc(N(C)S(C)(=O)=O)c([C@@H]3CCCN(C(=O)c4cc5sccc5n4C)C3)cc12` [Example 74, 2-(4-fluorophenyl)-N-methyl-6-[methyl(methylsulfonyl)amino]-5-{1-[(4-methyl-4H-thieno[3,2-b]pyrrol-5-yl)carbonyl]piperidin-3-yl}-1-benzofuran-3-carboxamide], the IC50 in assay [1] (setting [3]) stood at 43.4 nM; in assay [2] (setting [4]) it was 54.8 nM.

For `CNC(=O)c1c(-c2ccc(F)cc2)oc2cc(N(C)S(C)(=O)=O)c([C@H]3CCCN(C(=O)c4cc5c(F)cccc5[nH]4)C3)cc12` [Example 88, 5-{(3R)-1-[(4-fluoro-1H-indol-2-yl)carbonyl]piperidin-3-yl}-2-(4-fluorophenyl)-N-methyl-6-[methyl(methylsulfonyl)amino]-1-benzofuran-3-carboxamide], the IC50 in assay [1] (setting [3]) came out at 38.7 nM; in assay [2] (setting [4]), 70.7 nM.

With `CNC(=O)c1c(-c2ccc(F)cc2)oc2cc(N(C)S(C)(=O)=O)c([C@H]3CCCN(C(=O)c4cn5c(Br)cccc5n4)C3)cc12` [Example 103, 5-{(3R)-1-[(5-bromoimidazo[1,2-a]pyridin-2-yl)carbonyl]piperidin-3-yl}-2-(4-fluorophenyl)-N-methyl-6-[methyl(methylsulfonyl)amino]-1-benzofuran-3-carboxamide], the results for the IC50 in assay [1] (setting [3]) and in assay [2] (setting [4]) were 110 nM and 212 nM, respectively.

In the case of `CNC(=O)c1c(-c2ccc(F)cc2)oc2cc(N(C)S(C)(=O)=O)c([C@@H]3CCCN(c4ncc(-c5ccc(F)cc5)o4)C3)cc12` (single isomer, unassigned) [Example 57, 2-(4-fluorophenyl)-5-(1-(5-(4-fluorophenyl)oxazol-2-yl)piperidin-3-yl)-N-methyl-6-(N-methylmethylsulfonamido)benzofuran-3-carboxamide], the values for the IC50 in assay [1] (setting [3]) and in assay [2] (setting [5]) were 22.2 nM and 19.9 nM, respectively.

In the case of `CNC(=O)c1c(-c2ccc(F)cc2)oc2cc(N(C)S(C)(=O)=O)c([C@@H]3CCCN(S(=O)(=O)c4cnc5c(c4)OCCN5C)C3)cc12` [Example 127, 2-(4-fluorophenyl)-N-methyl-5-{(3S)-1-[(4-methyl-3,4-dihydro-2H-pyrido[3,2-b][1,4]oxazin-7-yl)sulfonyl]piperidin-3-yl}-6-[methyl(methylsulfonyl)amino]-1-benzofuran-3-carboxamide], the figures for the IC50 in assay [1] (setting [3]) and in assay [2] (setting [4]) were 32.4 nM and 90.2 nM, respectively.

`CNC(=O)c1c(-c2ccc(F)cc2)oc2cc(N(C)S(C)(=O)=O)c([C@@H]3CCCN(S(=O)(=O)C4CCCCC4)C3)cc12` [Example 116, 5-[(3S)-1-(cyclohexylsulfonyl)piperidin-3-yl]-2-(4-fluorophenyl)-N-methyl-6-[methyl(methylsulfonyl)amino]-1-benzofuran-3-carboxamide]: the IC50 in assay [1] (setting [3]) turned out to be 31.7 nM; in assay [2] (setting [4]), 194 nM.

As to `CNC(=O)c1c(-c2ccc(F)cc2)oc2cc(N(C)S(C)(=O)=O)c([C@H]3CCCN(S(=O)(=O)Cc4ccc(F)c(F)c4)C3)cc12` [Example 84, 5-{(3R)-1-[(3,4-difluorobenzyl)sulfonyl]piperidin-3-yl}-2-(4-fluorophenyl)-N-methyl-6-[methyl(methylsulfonyl)amino]-1-benzofuran-3-carboxamide], the IC50 in assay [1] (setting [3]) was determined as 3.04 nM; in assay [2] (setting [4]), 2.77 nM.

`CNC(=O)c1c(-c2ccc(F)cc2)oc2cc(N(C)S(C)(=O)=O)c([C@@H]3CCCN(c4nc5ccccc5n4C)C3)cc12` (single isomer, unassigned) [Example 43, 2-(4-fluorophenyl)-N-methyl-5-(1-(1-methyl-1H-benzo[d]imidazol-2-yl)piperidin-3-yl)-6-(N-methylmethylsulfonamido)benzofuran-3-carboxamide]: the figures for the IC50 in assay [1] (setting [3]) and in assay [2] (setting [4]) were 93 nM and 41.2 nM, respectively.

With `CNC(=O)c1c(-c2ccc(F)cc2)oc2cc(N(C)S(C)(=O)=O)c([C@H]3CCCN(S(=O)(=O)Cc4ccc(F)cc4)C3)cc12` [Example 80, 5-{(3R)-1-[(4-fluorobenzyl)sulfonyl]piperidin-3-yl}-2-(4-fluorophenyl)-N-methyl-6-[methyl(methylsulfonyl)amino]-1-benzofuran-3-carboxamide], the IC50 in assay [1] (setting [3]) was 4.5 nM; in assay [2] (setting [4]) it was 3.17 nM.

As for `CNC(=O)c1c(-c2ccc(F)cc2)oc2cc(N(C)S(C)(=O)=O)c([C@@H]3CCCN(S(=O)(=O)c4ccc(F)cc4)C3)cc12` [Example 115], the values for the IC50 in assay [1] (setting [3]) and in assay [2] (setting [4]) were 8 nM and 36.6 nM, respectively.
